The source made the active and inactive calls. The rule behind the calls is not given here.
Columns and labels:
[1] = target: T1, Prostaglandin E synthase (Homo sapiens) (UniProt O14684); test: Inhibition of mPGES1 in IL-1beta-stimulated human A549 cell microsomes assessed as remaining activity at 10 uM using PGH2 as substrate by measuring reduction in PGE2 production preincubated for 15 mins followed by substrate addition and measured after 1 min by RP-HPLC analysis
T1 sequence (whole entry): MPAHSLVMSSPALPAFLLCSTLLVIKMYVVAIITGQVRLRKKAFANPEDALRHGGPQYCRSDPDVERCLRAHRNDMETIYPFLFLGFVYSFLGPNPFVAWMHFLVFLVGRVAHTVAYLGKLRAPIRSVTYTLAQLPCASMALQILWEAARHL

[2] = target: T2, Prostaglandin E synthase (Homo sapiens, UniProt O14684); test: Inhibition of mPGES1 in IL-1beta-stimulated human A549 cell microsomes using PGH2 as substrate assessed as reduction in PGE2 production preincubated for 15 mins followed by substrate addition and measured after 1 min by RP-HPLC analysis
T2 sequence (O14684 whole entry): T1 sequence (whole entry)

[3] = target: T3, Prostaglandin G/H synthase 1 (Ovis aries) (UniProt P05979); test: Inhibition of ovine COX1 at 10 uM using arachidonic acid as substrate preincubated for 5 mins followed by substrate addition and measured after 5 mins by UPLC-MS/MS analysis
T3 sequence (whole entry): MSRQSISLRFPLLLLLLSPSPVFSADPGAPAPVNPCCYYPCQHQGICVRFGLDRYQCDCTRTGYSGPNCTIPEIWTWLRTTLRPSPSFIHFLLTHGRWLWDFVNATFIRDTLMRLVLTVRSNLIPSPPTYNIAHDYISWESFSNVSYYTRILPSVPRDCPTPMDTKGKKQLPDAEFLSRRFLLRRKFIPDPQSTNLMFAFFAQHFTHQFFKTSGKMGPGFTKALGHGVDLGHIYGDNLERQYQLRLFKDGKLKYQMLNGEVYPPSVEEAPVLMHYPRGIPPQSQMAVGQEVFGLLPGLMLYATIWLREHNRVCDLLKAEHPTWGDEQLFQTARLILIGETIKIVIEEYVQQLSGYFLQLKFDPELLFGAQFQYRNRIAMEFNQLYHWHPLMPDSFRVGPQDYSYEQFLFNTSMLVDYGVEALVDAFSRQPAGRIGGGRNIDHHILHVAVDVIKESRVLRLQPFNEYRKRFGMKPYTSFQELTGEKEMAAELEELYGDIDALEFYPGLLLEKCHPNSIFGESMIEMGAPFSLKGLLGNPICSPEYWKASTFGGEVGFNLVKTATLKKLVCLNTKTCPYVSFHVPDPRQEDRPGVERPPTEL

[4] = target: T4, Prostaglandin G/H synthase 2 (Homo sapiens) (UniProt P35354); test: Inhibition of recombinant human COX2 at 10 uM using arachidonic acid as substrate preincubated for 5 mins followed by substrate addition and measured after 5 mins by UPLC-MS/MS analysis
T4 sequence (whole entry): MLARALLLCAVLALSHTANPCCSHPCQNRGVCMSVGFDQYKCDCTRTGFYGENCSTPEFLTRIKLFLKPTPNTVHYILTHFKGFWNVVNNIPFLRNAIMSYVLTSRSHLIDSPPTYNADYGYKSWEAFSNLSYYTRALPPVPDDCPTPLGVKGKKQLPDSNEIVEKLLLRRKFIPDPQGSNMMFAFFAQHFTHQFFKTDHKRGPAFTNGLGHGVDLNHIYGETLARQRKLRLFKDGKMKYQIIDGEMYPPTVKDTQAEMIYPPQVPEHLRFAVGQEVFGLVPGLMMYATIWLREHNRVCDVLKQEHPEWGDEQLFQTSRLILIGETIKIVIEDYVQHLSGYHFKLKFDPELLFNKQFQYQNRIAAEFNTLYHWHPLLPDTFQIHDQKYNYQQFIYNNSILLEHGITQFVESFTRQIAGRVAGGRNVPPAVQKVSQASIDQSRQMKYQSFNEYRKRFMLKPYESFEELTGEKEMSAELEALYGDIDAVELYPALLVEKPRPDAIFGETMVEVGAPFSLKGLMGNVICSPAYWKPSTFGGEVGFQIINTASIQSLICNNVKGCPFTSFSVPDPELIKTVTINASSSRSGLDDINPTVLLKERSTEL

[5] = target: T5, Prostaglandin G/H synthase 1 (Ovis aries, UniProt P05979); test: Inhibition of ovine COX1 using arachidonic acid as substrate preincubated for 5 mins followed by substrate addition and measured after 5 mins by UPLC-MS/MS analysis
T5 sequence (P05979 whole entry): T3 sequence (whole entry)

Row | Activity [1] | IC50 [2] | Structure (SMILES) | inhibition [3] | inhibition [4] | IC50 [5]
1 | inactive | > 10 µM | O=[N+]([O-])c1cc(C(F)(F)F)ccc1-c1ccc(COc2cccc3ccccc23)cc1 | – | – | –
2 | inactive | > 10 µM | O=[N+]([O-])c1cc(C(F)(F)F)ccc1-c1ccc(COc2cccc(C(F)(F)F)c2)cc1 | – | – | –
3 | inactive | > 10 µM | O=[N+]([O-])c1cc(C(F)(F)F)ccc1-c1ccccc1COc1cccc(C(F)(F)F)c1 | – | – | –
4 | 9.5% | 0.6 µM | O=[N+]([O-])c1cc([N+](=O)[O-])c(-c2ccc(COc3ccccc3)cc2)cc1F | inactive | inactive | –
5 | inactive | > 10 µM | O=[N+]([O-])c1cc(C(F)(F)F)ccc1-c1ccc(COc2ccccc2)cc1 | – | – | –
6 | inactive | > 10 µM | COCCc1ccc(OCc2ccc(-c3ccc(C(F)(F)F)cc3[N+](=O)[O-])cc2)cc1 | – | – | –

Row | Structure (SMILES) | Activity [1] | IC50 [2] | inhibition [3] | inhibition [4] | IC50 [5]
7 | COCCc1ccc(OCc2ccc(-c3cc(F)c([N+](=O)[O-])cc3[N+](=O)[O-])cc2)cc1 | 11.8% | 1.64 µM | inactive | inactive | –
8 | O=[N+]([O-])c1cc([N+](=O)[O-])c(-c2ccccc2COc2cccc(C(F)(F)F)c2)cc1F | 7% | 0.54 µM | Active | inactive | 3 µM
9 | O=[N+]([O-])c1cc([N+](=O)[O-])c(-c2ccc(COc3cccc(C(F)(F)F)c3)cc2)cc1F | 12.1% | 0.26 µM | inactive | inactive | –
10 | O=[N+]([O-])c1cc([N+](=O)[O-])c(-c2ccc(COc3cccc4ccccc34)cc2)cc1F | 9.1% | 0.18 µM | inactive | inactive | –
